This passage reports IC50 results from BindingDB's records for patent US11814384 (Kinnate Biopharma, 2023).

As usually defined, the IC50 is the concentration at which inhibition is half-maximal. Low values mean inhibition by little substance, high ones a need for much substance.

The target of the test is Serine/threonine-protein kinase B-raf (Homo sapiens, UniProt P15056). The test is described as follows: Enzymatic BRAF Kinase Activity Assay. The method, then:
Small molecule inhibition of the BRAF kinases was measured using ADP-Glo assay. In the assay, […], resulting in luciferase reaction and luminescent readout with light generated proportional to the relative kinase activity. Compounds diluted in DMSO were used in 10-point, 3-fold dose curve for both assays. Final concentrations of 6 nM BRAF (CarnaBio, Cat. 09-122) or 3 nM RAF1 (CarnaBio, Cat. 09-125) and 30 nM MEK1 substrate (Millipore, Cat. 14-420) were incubated with 3 µM ATP, 10 mM MgCl2, 0.003% Brij-35, 2 mM DTT, 0.05% BSA, 1 mM EGTA, and 50 mM HEPES for 90 minutes at room temp prior to addition of ADP-Glo reagent (Promega, Cat. V9102) for 40 minutes, and detection reagent for 45 minutes. Luminescence was read on an Envision plate reader (PerkinElmer) and percent remaining activity was used to calculate IC50 using a four-parameter fit model using Dotmatics Knowledge Solutions Studies curve fitting (Dotmatics, Bishops Stortford, UK, CM23).

“Also recorded” adds a separate entry of the source.

Sequence of Serine/threonine-protein kinase B-raf (P15056 whole entry): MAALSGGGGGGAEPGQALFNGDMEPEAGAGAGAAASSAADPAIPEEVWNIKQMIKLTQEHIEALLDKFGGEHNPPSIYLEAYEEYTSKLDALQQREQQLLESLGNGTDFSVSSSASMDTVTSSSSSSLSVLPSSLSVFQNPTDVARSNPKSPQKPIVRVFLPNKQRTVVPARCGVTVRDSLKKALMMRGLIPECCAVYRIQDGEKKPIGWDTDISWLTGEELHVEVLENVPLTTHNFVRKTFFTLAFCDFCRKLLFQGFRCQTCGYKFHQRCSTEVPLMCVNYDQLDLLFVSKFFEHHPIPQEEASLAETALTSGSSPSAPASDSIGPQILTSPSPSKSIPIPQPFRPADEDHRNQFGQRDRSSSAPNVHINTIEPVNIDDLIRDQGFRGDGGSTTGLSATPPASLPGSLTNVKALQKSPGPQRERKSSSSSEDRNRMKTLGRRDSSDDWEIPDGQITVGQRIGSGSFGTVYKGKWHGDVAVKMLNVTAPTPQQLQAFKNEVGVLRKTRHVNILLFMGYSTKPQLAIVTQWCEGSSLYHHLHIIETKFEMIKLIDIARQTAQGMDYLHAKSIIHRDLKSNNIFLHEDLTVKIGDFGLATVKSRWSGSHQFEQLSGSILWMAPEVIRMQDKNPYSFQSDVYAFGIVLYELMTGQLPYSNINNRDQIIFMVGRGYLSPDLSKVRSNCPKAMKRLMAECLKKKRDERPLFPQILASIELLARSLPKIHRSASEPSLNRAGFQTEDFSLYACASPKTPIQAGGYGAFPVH

In the case of `Cc1cc(F)c(NC(=O)c2cn(C(C)(C)C)nn2)cc1-c1cc(N2CCOCC2)c2nccn2c1` [US11814384, Example 86], the IC50 result is “in the range around 5.5 nM”.
The result for `Cc1cc(F)c(NC(=O)[C@@H]2CCN(CC(F)(F)F)C2)cc1-c1cc(N2CCOCC2)c2nccn2c1` [US11814384, Example 46] reads “in the range around 5.5 nM”.
On to `Cc1cc(F)c(NC(=O)c2ccn(C(C)(C)C)c2)cc1-c1cc(N2CCOCC2)c2nccn2c1` [US11814384, Example 43], for which the 50% inhibitory concentration (IC50) entry was “in the range around 5.5 nM”.
The result for `Cc1cc(F)c(NC(=O)c2cnn(C(C)(C)C)c2F)cc1-c1cc(N2CCOCC2)c2nnnn2c1` [US11814384, Example 220] reads “in the range around 55 nM”; that for `Cc1cc(F)c(NC(=O)c2cnn(C(C)(C)C(F)F)c2)cc1-c1cc(N2CCOCC2)c2nccn2c1` [US11814384, Example 124], “in the range around 5.5 nM”.
For `Cc1nc2cc(-c3cc(NC(=O)c4cnc(C(C)(C)C)o4)c(F)cc3C)cc(N3CCOCC3)n2n1` [US11814384, Example 291], the IC50 entry was “in the range around 55 nM”.
The result for `Cc1cn2cc(-c3cc(C(=O)Nc4cnn(C(C)(C)C)c4F)c(F)cc3C)cc(N3CCOCC3)c2n1` [US11814384, Example 267] reads “in the range around 5.5 nM”; that for `Cc1ccc(NC(=O)c2nn(C(C)(C)C)cc2F)cc1-c1cc(N2CCOCC2)c2nccn2c1` [US11814384, Example 142], “in the range around 5.5 nM”.
On to `Cc1cc(F)c(NC(=O)c2ncn(C(C)(C)C)c2F)cc1-c1cc(N2CCOCC2)c2nccn2c1` [US11814384, Example 160], for which the IC50 entry is “in the range around 5.5 nM”.
The result for `Cc1cc(F)c(NC(=O)c2cc(F)n(C3(C)CC3)c2)cc1-c1cc(N2CCOCC2)c2nccn2c1` [US11814384, Example 247] reads “in the range around 55 nM”; that for `CC(C)(C)n1ncc(C(=O)Nc2cc(-c3cc(N4CCOCC4)c4nccn4c3)c(Cl)cc2F)c1F` [US11814384, Example 98], “in the range around 5.5 nM”; that for `Cc1cc(F)c(NC(=O)N2CC=C(C(F)(F)C(F)(F)F)C2)cc1-c1cc(N2CCOCC2)c2nccn2c1` [US11814384, Example 22], 1 to 10 nM.
The result for `Cc1ccc(NC(=O)c2ccnc(C(F)(F)F)c2)cc1-c1cc(N2CCOCC2)c2nc3c(n2c1)CC(O)CC3` (configuration not stated) [US11814384, Example 34] reads 1 to 10 nM.
On to `Cc1cc(F)c(NC(=O)c2cnn(C(C)(C)C)c2F)cc1-c1cc(N2CC3CCC(C2)O3)c2nccn2c1` [US11814384, Example 180], for which the IC50 result is “in the range around 5.5 nM”.
The result for `Cc1cc(F)c(C(=O)Nc2cccc(C(C)(C)C)c2)cc1-c1cc(N2CCOCC2)c2nccn2c1` [US11814384, Example 205] reads “in the range around 55 nM”; that for `Cc1cc(F)c(NC(=O)c2cnn(C(F)C(C)(C)F)c2)cc1-c1cc(N2CCOCC2)c2nccn2c1` (configuration not stated) [US11814384, Example 125], “in the range around 5.5 nM”.
The result for `Cc1cc(F)c(NC(=O)c2cnc(C(C)(C)C)o2)cc1-c1cc(N2CCOCC2)c2nccn2c1` [US11814384, Example 183] reads “in the range around 5.5 nM”; that for `Cc1nc2c(N3CCOCC3)cc(-c3cc(C(=O)Nc4cnn(C(C)(C)C)c4F)c(F)cc3C)cn2n1` [US11814384, Example 285], “in the range around 5.5 nM”; that for `Cc1cc(F)c(NC(=O)c2cncc(C(C)(F)F)c2)cc1-c1cc(N2CCOCC2)c2nccn2c1` [US11814384, Example 84], “in the range around 5.5 nM”.
Consider `CCc1nc2cc(-c3cc(C(=O)Nc4cnn(C(C)(C)C)c4F)c(F)cc3C)cc(N3CCOCC3)n2n1` [US11814384, Example 306], for which the IC50 entry was “in the range around 5.5 nM”.
The result for `O=C(Nc1cc(-c2cc(N3CCOCC3)c3nccn3c2)c(F)cc1F)N1CC[C@@H](CC(F)(F)F)C1` [US11814384, Example 99] reads “in the range around 55 nM”; that for `Cc1nc2cc(-c3cc(NC(=O)c4cnn(C(C)(C)C)c4F)c(F)cc3C)cc(N3CCOCC3)n2n1` [US11814384, Example 282], “in the range around 55 nM”; that for `Cc1cc(F)c(NC(=O)c2ccnc3c2ccn3C(C)C)cc1-c1cc(N2CCOCC2)c2nccn2c1` [US11814384, Example 206], “in the range around 5.5 nM”.
As for `CCc1nc2cc(-c3cc(NC(=O)c4cnc(C(C)(C)C)o4)c(F)cc3C)cc(N3CCOCC3)n2n1` [US11814384, Example 305], the IC50 entry was “in the range around 55 nM”.
For the compound `Cc1cc(F)c(NC(=O)c2cnn(C(C)(C)C)c2F)cc1-c1cc(C2=CCOCC2)c2nccn2c1` [US11814384, Example 153], the IC50 result was “in the range around 5.5 nM”.
Consider `Cc1ccc(NC(=O)c2ccnc(C(F)(F)F)c2)cc1-c1cc(N2CCOCC2)c2nc3c(n2c1)COCC3` [US11814384, Example 33], for which the half-maximal inhibitory concentration (IC50) result is “in the range around 5.5 nM”.
With `Cc1cc(F)c(NC(=O)c2cn(C(C)(C)C)cc2F)cc1-c1cc(N2CCOCC2)c2nccn2c1` [US11814384, Example 66] the entry was “in the range around 5.5 nM”; with `Cc1cc(F)c(NC(=O)c2cnn(C(C)(C)C)c2F)cc1-c1cc(N2CCOCC2)n2ncnc2c1` [US11814384, Example 189], “in the range around 5.5 nM”; with `Cc1cc(F)c(NC(=O)c2cnn(C34CC(C3)C4)c2)cc1-c1cc(N2CCOCC2)c2nccn2c1` [US11814384, Example 164], “in the range around 5.5 nM”.
On to `Cc1cc(F)c(NC(=O)N2CCC(C3(C(F)(F)F)CC3)C2)cc1-c1cc(N2CCOCC2)c2nccn2c1` (configuration not stated) [US11814384, Example 60], for which the IC50 result is “in the range around 5.5 nM; also recorded: in the range around 55 nM”.
Take `Cc1nc2c(N3CCOCC3)cc(-c3cc(NC(=O)c4coc(C(C)(C)C)n4)c(F)cc3C)cn2n1` [US11814384, Example 294]: the IC50 result was “in the range around 55 nM”.
With `Cc1ccc(NC(=O)c2cnc(C(C)(C)C)o2)cc1-c1cc(N2CCOCC2)c2nccn2c1` [US11814384, Example 185] the entry was “in the range around 5.5 nM”.
On to `CC(C)(C)n1ncc(C(=O)Nc2cc(-c3cc(N4CCOCC4)c4nccn4c3)c(Cl)cn2)c1F` [US11814384, Example 226], for which the IC50 entry is “in the range around 5.5 nM”.
As to `Cc1cc(F)c(NC(=O)N2CC[C@@H](CC(F)(F)F)C2)cc1-c1cc(N2CCOCC2)c2nccn2c1` [US11814384, Example 17], the IC50 entry was “in the range around 5.5 nM”.
`Cc1cc(F)c(NC(=O)N2CCC(C(F)(F)C(F)(F)F)C2)cc1-c1cc(N2CCOCC2)c2nccn2c1` (configuration not stated) [US11814384, Example 23] yielded an IC50 of 1 to 10 nM.
With `Cc1cc(F)c(C(=O)Nc2cnn(C(C)(C)C)c2F)cc1-c1cc(N2CCOCC2)c2nc(C(C)C)nn2c1` [US11814384, Example 308] the entry was “in the range around 5.5 nM”.
Regarding `Cc1cc(F)c(NC(=O)c2cnc(C(C)(C)C)o2)cc1-c1cc(N2CCOCC2)n2nc(C3CC3)nc2c1` [US11814384, Example 304], the IC50 entry is “in the range around 5.5 nM”.
